{"source": "patent US20260263517A1", "about": "“THERAPEUTIC METHODS WITH TARGET-LINKED SMALL MOLECULES AND ANTI-TARGET CAR T CELLS” (Seattle Children's Hospital (dba Seattle Children's …, priority 2022, published 2026)", "tested_on": "HOS-FRα tumors", "assay": "subcutaneous HOS-FRα osteosarcoma xenograft, E2 CAR-T cells plus EC17", "format": "in vivo", "excerpt": "A dosing regimen is shown in FIG. 21 which includes administration of about 5 million E2 CAR T cells at day −3; administration of EC17 at days 0, 3, 7, 14, 17, 21, 28, 31 and 35. Sequential escalating doses of EC17 will be administered under the following rules: If no CRS or neurotoxicity, advance through EC17 dose escalation as planned. If CRS grade≤2, administer all subsequent EC17 doses at die Sequence level that provoked the non-serious CRS in the stone cycle. If CRS grade>2, cancel further EC17 doses in the current Cycle, and commence all subsequent Cycles at the next highest Sequence below that which provoked the severe CRS (sCRS).\nHOS-FRα (i.e. HOS-143b-LV-FRα) is a subclone of HOS-143B (ATCC CRL-8303) stably transfected with human FRα. HOS-143B was originally derived from a […] with osteosarcoma. The tumor cells were grown in folate-deficient RPMI 1640 with 5% FBS at 37° C. in a 5% CO2 humidified atmosphere. For the in-vivo study, tumor cells were inoculated subcutaneously at 1×10^6 cells per animal.\nEGFRt-sorted anti-FITC E2 scFv-CAR T cells were frozen in a T-cell freezing medium. Upon arrival, vials of frozen CAR-T cells were immediately stored at −80° C. The CAR-T cells were quickly thawed at 37° C., washed twice with PBS, and used for animal injection at 6 million viable EGFRt+E2 CAR-T cells (CD4/CD8 at ~1:1) per animal. A small aliquot was taken on the day infusion for flow cytometric analysis of E2-CAR T-cell phenotypes.\nEC17 dosing solutions were prepared when dosing began by weighing appropriate amounts of each compound, reconstituting in PBS, pH 7.4, sterile filtering the drug solution through a 0.22 pm PVDF syringe filter, and freezing aliquots for each day of dosing at −20° C.\nAll EC17 doses were given towards the end of day (3-4 PM) to allow potential CRS (cytokine release syndrome) to develop overnight.\nTumor growth, body weight, and overall assessment: Tumor sizes were monitored 2-3 times/week and body weight measured 2-3 times/week. On the days immediately after any EC17 dose, body weight measurement was taken daily and attention was given to gross animal morphology and behavior.\nEuthanasia: Euthanasia was performed when mice had lost ≥20% of their weight, when tumors reached ≥1500 mm^3. Euthanasia was also performed if mice lost a lot of weight in a short duration (e.g., due to severe head-tilt), or when they approached moribund conditions per CRS grading system.\nAll animal care and use were performed according to NIH guidelines and in compliance with protocols approved by the Purdue University Animal Use and Care Committee. Female 4 to 5-week-old NOD/SCID gamma (NSG™) mice (stock number:005557) were purchased from The Jackson Faboratory (Bar Harbor, ME). Unless specifically indicated, all animals were maintained on a FA-deficient diet (TestDiet, St. Fouis, MO) upon arrival and throughout the study. To establish subcutaneous xenografts, MDA-MB-231 and HOS-FRα were implanted in the right flank region at 2.5×10^6 and 1×10^6 cells per animal, respectively. For intravenous xenografts, THP1-FRβ) cells were inoculated at 5×10^6 cells per animal. Subcutaneous tumors were measured 2-3 times per week with a caliper and calculated using the ellipsoidal formula (length×width2)/2. […] All animal doses (CAR-T cells, EC17, sodium fluorescein) were given intravenously.\nIn a therapeutic setting, EC17 CAM can be given before or after CAR-T cell injection. […]", "key": {"[1]": {"settings": "E2 CAR-T cells + EC17 5/100/1000 nmol/kg, M/Th/M (Cohort 2)"}}, "note": "Entries after “also recorded” stand apart in the source; their conditions may differ."}
{"smiles": "NC1=NC2N=CC(CNc3ccc(C(=O)N[C@@H](CCC(=O)NCCNC(=S)Nc4ccc(-c5c6ccc(=O)cc-6oc6cc(O)ccc56)c(C(=O)O)c4)C(=O)O)cc3)=NC2C(=O)N1", "note": "(some centres unmarked) [EC17, FA-(γ)-ethylenediamine-FITC]", "values": [{"measurement": "body weight loss or CRS", "setting": "[1]", "value": "without body weight loss or CRS"}, {"measurement": "tumor volume of HOS-FRα tumors", "setting": "[1]", "value": "significant tumor regression"}, {"measurement": "CAR-T cell expansion in whole blood (flow cytometry)", "setting": "EC17 dose escalation M/Th/M, at euthanasia days 33 and 47", "value": "EC17-dependent CAR-T cell expansion up to day 47 but higher on day 33"}, {"measurement": "CRS or body weight loss", "setting": "~6 million E2-CAR-T cells + EC17 5/10/100, 5/30/300, 5/50/500 nmol/kg in Cycles 1-3, M/Th/M", "value": "no CRS or body weight loss"}, {"measurement": "HOS-FRα tumor growth", "setting": "~6 million E2-CAR-T cells + EC17 5/10/100, 5/30/300, 5/50/500 nmol/kg in Cycles 1-3, M/Th/M, 6-day break", "value": "significant delay in tumor growth within the first two cycles of treatment; also recorded: stopped responding to treatment in Cycle 3"}]}
